# Laboratory results reported in patent publication US6043283A, “Tyramine compounds and their neuronal effects” (priority 1997, dated 2000).
# “Also recorded” adds a separate entry of the source. Where two headings read alike, the source gives them in different places.
# Experiments:
# [1] = test system: NTox released by Aβ1-42-stimulated microglia (neuron killing); assay: cells; type: cell-based, rat
# Excerpt: . Briefly, hippocampal cells obtained from embryonic stage 18 rat fetuses were dispersed mechanically in the presence of 0.125% trypsin and plated onto poly-L-lysine coated glass coverslips in 24 well plates at 250,000 cells per well (resulting in adhering cell densities of about 1250 cells per mm^2) in chemically-defined N2 culture media containing 5% fetal bovine serum. Gradual reduction of serum began on day 10 in vitro with daily 1:1 volume replacements with chemically-defined media, until a final concentration of 0.6% serum was achieved. […]; see FIG. 18). In order to eliminate microglia, cultures were exposed to saporin (sap; a ribosome-inactivating protein; Davis and Wiley, 1989) coupled to acetylated LDL (ac-LDL) at a concentration of 10 μg/ml for 12 hours. […] Cultures depleted of microglia were then exposed to test substances in the presence or absence of exogenous microglia (100,000 cells per culture). […]. Controls included cultures without saporin-treatment, cultures without test substances, and cultures with test substances but lacking microglia.
# (§1) On day 14 of culture, immediately following saporin treatment, test substances were added to the hippocampal cultures. Synthetic peptide were supplied as 1 mM stock solutions in 0.1 M phosphate buffered saline, pH 7.2, stored for at least 1 week at 4° C. before use. After 72 hours incubation, the cultures were fixed in 4% paraformaldehyde at room temperature for 18 hours and immuno-stained by overnight incubation with a mixture of anti-neurofilament antibodies (NF; SMI-311, 1:600; Stemberger Monoclonals, Inc.) plus anti-MAP-2 (Boehringer Mannheim, 184959; 1:600) at 4° C. in the presence of 2% horse serum and 0.3% triton X-100 to delineate both neuronal cell bodies and neurites. Astroglia were visualized using sheep anti-glial fibrillary acidic protein (GFAP, Sigma) as described by Giulian et al., 1989. Finally, to label all cell nuclei, the coverslips were exposed to 0.01% bisbenzimide (Hoechst 33258; Sigma) in PBS, pH 6.9, and rinsed in distilled water and mounted in glycerin. Immuno-labeled cells per field and nuclei per field were scored at 200X magnification using fluorescence microscopy. Data were expressed as % mean survival expressed in terms of parallel untreated control cultures after scoring at least 20 randomly selected fields for each of 3 coverslips.
# The procedures described above and by Giulian et al, 1996, provided for the identification of tyramine compounds as therapeutic agents for neurodegenerative diseases or disorders including, for example, Alzheimer's disease. Cells from the brain of fetal rats were grown in tissue cultures. Microglial populations within the cultures were controlled following the method described in Example 5 above. Known amounts of Aβ peptides coupled to microspheres were added to the culture. The Aβ spheres stimulated the microglia to release NTox, which in turn destroyed the neurons. The neurons in the cultures were monitored for survival by immuno-staining.
# Generally, drug assays involve the addition of known concentrations of a test agent over a range of concentrations. After 72 hours, the experiment is stopped and the neurons are identified by immuno-staining. The data is expressed as % neuronal survival […]. Dose response curves are then used to estimate Effective Dose50 % (ED50) of neuroprotective agents. […].
# In this experiment, about 65% of the neurons were destroyed by the Aβ-stimulated microglia. […] Other tyramine compounds, including tyrosine esters, were neuroprotective (FIG. 30).
# Following the methods described herein, numerous compounds were examined to determine their neuroprotective activity. […]
# NTox = assay: protection of neurons against isolated NTox applied directly; type: cell-based; conditions: isolated NTox; FIGS. 13, 32
# Excerpt: FIG. 32 is a graph showing the specificity of tyramine compounds to NTox. […].
# Initial studies to characterize the neuroprotective effect of tyramine compounds employed microglia-neuron co-culture assays in the presence of Aβ or isolated senile plaques. Inhibition of neuron killing in […]--inhibition of microglial activation by Aβ or plaques; inhibition of NTox production and release by microglia; or inhibition of action of NTox upon neurons. […] Effective doses in the low nmolar range show the tyramine compounds to be very potent agents compared with low μmolar range of other neuroprotective drugs under development for neurological disorders.
# quinolinic acid (QUIN) = assay: protection of neurons against quinolinic acid; type: cell-based; conditions: QUIN (100 μM in FIG. 13)
# Excerpt: FIG. 32 is a graph showing the specificity of tyramine compounds to NTox. […]
# [2] = test system: reactive microglia in rat neocortex; assay: brain inflammatory response after infusion into neocortex of adult rat; type: in vivo; conditions: 0.5 nmoles Aβ1-42, co-infusion of 1.0 nmole peptide; 5 days
# microglia = assay: inhibition of SpheresAβ1-42 binding to microglia; design: species or system rat; conditions: for inhibition of SpheresAβ1-42 binding by peptides: 10 μmoles/l, 4 hours, 37° C.; for SpheresAβ1-42 binding after enzymatic treatment of microglia: trypsin 5000 units/ml, heparinase 0.01 units/ml, chondroitinase ABC 0.02 units/ml
# Protocol: (§2) Spheresmal-BSA (which bind to scavenger receptors) or SpheresAβ1-42 were incubated with microglia for 4 hours following pre-treatment of cells with trypsin (5000 units/ml at 37° C. for 60 min followed by inactivation with soybean trypsin inhibitor), with heparinase (heparin lyase EC 4.2.2.7; two consecutive treatments each of 0.01 units/ml for 60 min), or with chondroitinase ABC (chondroitin ABC lyase EC 4.3.3.4; two consecutive treatments each of 0.02 units/ml for 60 min). […] Microglia mixed with hippocampal neurons were treated with combinations of β-D-xyloside (1 mm), heparinase (0.02 units/ml), or chondroitinase (0.04 units/ml) and then exposed to plaques.
# Each well then received 250,000 SpheresAβ1-42 or Spheresmal-BSA in the presence or absence of Aβ peptides, GAGs, or scavenger receptor ligands. Binding assays were carried out at 37° C. for 4 hours after which coverslips were dipped 10 times in phosphate buffer and fixed with 4% buffered paraformaldehyde. Microsphere adherence to cells was scored at 200 magnification with phase/fluorescence microscopy. Data, expressed as % inhibition of sphere binding, was calculated from total number of spheres per field noted for control cultures receiving spheres only. Values are based upon at least 3 coverslips from 2 independent experiments. […] Washed spheres were resuspended in 0.2 M borate buffer (pH 8.5) in the presence of 300 μg Aβ or 400 μg BSA in 6% DMSO. After overnight mixing at room temperature, the spheres were washed extensively and blocked by 1 M glycine (pH 8.0) for 30 minutes.
# rat microglia [3] = assay: binding of Aβ-coupled microspheres to microglia; conditions: 4 hours at 37° C. (72 h in FIG. 23)
# [4] = test system: Aβ1-42-stimulated microglia; type: cell-based, rat; conditions: for blocking of Aβ1-42 induced microglial neurotoxicity by peptides: 10 μmoles/liter peptide, 1 μmole/liter Aβ1-42; for IC50: read-out: ED50 (blocking of Aβ1-42 induced neurotoxicity), FIG. 16B
# Excerpt: (§3) Briefly, hippocampal cells obtained from embryonic stage 18 rat fetuses were dispersed mechanically in the presence of 0.125% trypsin and plated onto poly-L-lysine coated glass coverslips in 24 well plates at 250,000 cells per well (resulting in adhering cell densities of about 1250 cells per mm^2) in chemically-defined N2 culture media containing 5% fetal bovine serum. Gradual reduction of serum began on day 10 in vitro with daily 1:1 volume replacements with chemically-defined media, until a final concentration of 0.6% serum was achieved. […] In order to eliminate microglia, cultures were exposed to saporin (sap; a ribosome-inactivating protein; Davis and Wiley, 1989) coupled to acetylated LDL (ac-LDL) at a concentration of 10 μg/ml for 12 hours. […] Cultures depleted of microglia were then exposed to test substances in the presence or absence of exogenous microglia (100,000 cells per culture). […] Controls included cultures without saporin-treatment, cultures without test substances, and cultures with test substances but lacking microglia.
# as §1
# [5] = type: physicochemical; conditions: chemically defined culture media, 37° C.; Table 2
# Excerpt: Solubility of peptides is described for chemicallydefined culture media a […]
# rat microglia [6] = type: binding; conditions: 6 hours, 37° C.
# Protocol: Synthetic Aβ peptides were linked to Sepharose beads (Pharmacia) in coupling buffer (0.1 M NaHCO3, 0.5 M NaCl, pH 8.3) containing 20% DMSO. This solution was combined with an appropriate volume of CNBr-activated Sepharose 4B (10 mg protein per ml of bead; Pharmacia protocol) and mixed overnight on a platform mixer at room temperature. Remaining active groups on the beads were blocked by 1.0 M glycine and excess uncoupled peptides removed from this bead-peptide complex by washing with three cycles of alternating pH (0.1 M acetate buffer, pH 4.0, followed by 0.1 M Tris-HCL buffer, pH 8.0, each buffer containing 0.5 M NaCl). Coupled beads (10^4 per ml) were placed in 35 mm culture dishes covered with 250,000 adhering microglia at 37° C. in 1.5 ml N2 medium in accordance with the procedure of Giulian et al., 1995a. The numbers of microglia which detached from the plate and bound to coupled beads were determined at the end of a 6 hour incubation period by inverted phase microscopy with 100 beads scored from each of three sister cultures. Glycine and bovine serum albumin (BSA) coupled beads were used as controls.
# [7] = test system: rat microglia / hippocampal neurons; conditions: for induction of neurotoxic microglia / neuron killing: rat microglia, mostly 1 μmole/l
# human microglia [8] = assay: induction of neuron-killing human microglia; type: cell-based; conditions: 1 μmole/liter synthetic peptides
# hippocampal neurons = type: cell-based, rat; conditions: absence of microglia
# Excerpt: as §3, §1
# human microglia [9] = assay: nitrite/nitrate production, human microglia; type: cell-based
# Protocol: Nitrites and nitrates, stable byproducts of nitric oxide synthetase (NOS) served as markers for nitric oxide (NO) synthesis (Ignarro, 1990). […]; for 24 to 72 hours incubated in the presence of neuritic/core plaques or Aβ peptides) were measured by the Griess method set forth by Beckman et al., 1990 against a standard curve ranging from 0.1 to 50.0 μM nitrate.
# [10] = test system: plaque-stimulated microglia; assay: blocking of plaque-induced microglial neurotoxicity; type: cell-based, rat; conditions: FIG. 16C
# scavenger receptor = assay: inhibition of Spheresmal-BSA binding to microglia; design: species or system rat
# Protocol: as §2
# Each well then received 250,000 SpheresAβ1-42 or Spheresmal-BSA in the presence or absence of Aβ peptides, GAGs, or scavenger receptor ligands. Binding assays were carried out at 37° C. for 4 hours after which coverslips were dipped 10 times in phosphate buffer and fixed with 4% buffered paraformaldehyde. Microsphere adherence to cells was scored at 200 magnification with phase/fluorescence microscopy. Data, expressed as % inhibition of sphere binding, was calculated from total number of spheres per field noted for control cultures receiving spheres only. Values are based upon at least 3 coverslips from 2 independent experiments. […]
compound,measurement,setting,value
NCCc1ccc(O)cc1 [tyramine],protective effect,"[1]; 10 μM, 72 hours, FIG. 30",completely prevented neuron death
same,neuroprotective activity (structure/function),[1]; Example 14,enhance neuroprotective effects
same,EC50,"[1]; Rattus norvegicus, Aβ-stimulated microglia, 72 h, FIG. 31, read-out: ED50 (neuroprotection)",~200 nM
same,inhibition of killing action of NTox applied to neurons,NTox,prevented neuronal injury
same,protection against quinolinic acid,quinolinic acid (QUIN),did not occur with quinolinic acid
"Aβ1-5: Aβ peptide residues 1-5 (DAEFR; Amyloid-beta protein 42; UniProt P05067 672-676, looked up, fragment)",local brain inflammatory response,[2],did not alter inflammation
same,inhibition of SpheresAβ1-42 binding by peptides,microglia,did not
same,binding of peptide-coupled microspheres to microglia,rat microglia [3],did not
same,blocking of Aβ1-42 induced microglial neurotoxicity by peptides,[4],did not
Aβ1-28: Aβ peptide residues 1-28,Solubility,[5],soluble
same,microglial adherence to coupled Sepharose beads,rat microglia [6],promoted cell binding; also recorded: promoted bead binding
same,inhibition of SpheresAβ1-42 binding by peptides,microglia,effectively prevented
same,induction of neurotoxic microglia / neuron killing,[7]; listed as 1-28,inactive
same,induction of neurotoxic human microglia,human microglia [8],inactive
same,direct neurotoxicity without microglia,hippocampal neurons,did not produce neurotoxicity
same,blocking of Aβ1-42 induced microglial neurotoxicity by peptides,[4],blocked neurotoxin production
same,IC50,[4],250 nM
Aβ1-40: synthetic human β-amyloid peptide 1-40,Solubility,[5],moderately soluble
same,"release of nitrate or nitrite, human microglia",human microglia [9],did not bring about release of nitrate or nitrites
same,binding of peptide-coupled microspheres to microglia,rat microglia [3],marked glial binding
same,"neuron killing, microglia separated from neurons (no contact)",[7],stimulated microglia to destroy neurons
same,ED50 (neuron killing via microglia),[7]; 500 microglia per mm^2,~80 nM
same,induction of neurotoxic microglia / neuron killing,[7]; listed as A1-40,neuron killing could be induced
same,killing of neurons,"[7]; rat, hippocampal neurons, 72 h, 1 µM",70-80%
same,induction of neurotoxic human microglia,human microglia [8],very potent inducers of neurotoxic human microglia; also recorded: stimulated release of neurotoxin from human microglia
"Aβ13-16: residues His13, His14, Gln15, and Lys16 (the HHQK domain within Aβ) (Amyloid-beta protein 42; UniProt P05067 684-687, looked up, fragment)",blocking of plaque-induced microglial toxicity by peptides,[10],blocked plaque-induced toxicity in vitro
same,local brain inflammatory response,[2],blocks the interaction of Aβ1-42 with microglia in vivo and reduces the local brain inflammatory response; also recorded: markedly reduced
same,blocking of Aβ1-42 induced microglial neurotoxicity by peptides,[4],blocked neurotoxin production
same,blocking of Aβ1-42 induced microglial neurotoxicity by peptides,[4]; listed as HHQK,one of the most potent plaque suppressor peptides identified
same,IC50,[4],~30 nM
dextran sulfate,inhibition of Spheresmal-BSA binding by ligands,"scavenger receptor; dextran sulfate 500 μg/ml, ac-LDL 200 μg/ml, Aβ1-16 10 μmole/l",blocked
same,inhibition of SpheresAβ1-42 binding by GAGs and scavenger receptor ligands,"microglia; heparin sulfate 50 μg/ml, dextran sulfate 500 μg/ml, ac-LDL 200 μg/ml",only heparin sulfate blocked; also recorded: not similar compounds
trypsin,Spheresmal-BSA binding after enzymatic treatment of microglia,"scavenger receptor; trypsin 5000 units/ml, chondroitinase ABC 0.02 units/ml",reduced by trypsin
same,SpheresAβ1-42 binding after enzymatic treatment of microglia,microglia,reduced by trypsin
same,SpheresAβ1-42 binding after enzymatic treatment of microglia,microglia; listed as trypsinization,markedly reduced
